Among the data in article PMC4774911, “Biochemical Screening of Five Protein Kinases from Plasmodium falciparum against 14,000 Cell-Active Compounds” (PLoS ONE, 2016) are IC50 values, retold here.

Values joined by “and” are separate entries in the source; they are usually repeats but may differ in a detail not shown here. Identical values can stand only once.

Assay in all cases: biochemical
Experiment [1] addresses T1, STRADA (Homo sapiens, UniProt Q7RTN6).
T1 sequence (Q7RTN6 1-431): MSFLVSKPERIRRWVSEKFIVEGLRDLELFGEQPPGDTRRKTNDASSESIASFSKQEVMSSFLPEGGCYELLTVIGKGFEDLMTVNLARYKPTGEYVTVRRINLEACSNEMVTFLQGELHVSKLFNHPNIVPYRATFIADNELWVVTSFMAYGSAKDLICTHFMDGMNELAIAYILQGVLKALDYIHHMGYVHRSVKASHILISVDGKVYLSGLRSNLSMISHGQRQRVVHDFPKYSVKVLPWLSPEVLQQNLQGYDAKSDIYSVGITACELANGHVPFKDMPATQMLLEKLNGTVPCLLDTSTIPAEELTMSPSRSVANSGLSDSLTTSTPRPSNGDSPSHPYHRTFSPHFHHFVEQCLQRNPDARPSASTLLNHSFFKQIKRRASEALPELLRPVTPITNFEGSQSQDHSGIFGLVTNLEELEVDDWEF

Experiment [2] concerns the target MELK (Homo sapiens, UniProt Q14680).
In experiment [3] the target is T2, MASTL (Homo sapiens, UniProt Q96GX5).
T2 sequence (Q96GX5 1-879): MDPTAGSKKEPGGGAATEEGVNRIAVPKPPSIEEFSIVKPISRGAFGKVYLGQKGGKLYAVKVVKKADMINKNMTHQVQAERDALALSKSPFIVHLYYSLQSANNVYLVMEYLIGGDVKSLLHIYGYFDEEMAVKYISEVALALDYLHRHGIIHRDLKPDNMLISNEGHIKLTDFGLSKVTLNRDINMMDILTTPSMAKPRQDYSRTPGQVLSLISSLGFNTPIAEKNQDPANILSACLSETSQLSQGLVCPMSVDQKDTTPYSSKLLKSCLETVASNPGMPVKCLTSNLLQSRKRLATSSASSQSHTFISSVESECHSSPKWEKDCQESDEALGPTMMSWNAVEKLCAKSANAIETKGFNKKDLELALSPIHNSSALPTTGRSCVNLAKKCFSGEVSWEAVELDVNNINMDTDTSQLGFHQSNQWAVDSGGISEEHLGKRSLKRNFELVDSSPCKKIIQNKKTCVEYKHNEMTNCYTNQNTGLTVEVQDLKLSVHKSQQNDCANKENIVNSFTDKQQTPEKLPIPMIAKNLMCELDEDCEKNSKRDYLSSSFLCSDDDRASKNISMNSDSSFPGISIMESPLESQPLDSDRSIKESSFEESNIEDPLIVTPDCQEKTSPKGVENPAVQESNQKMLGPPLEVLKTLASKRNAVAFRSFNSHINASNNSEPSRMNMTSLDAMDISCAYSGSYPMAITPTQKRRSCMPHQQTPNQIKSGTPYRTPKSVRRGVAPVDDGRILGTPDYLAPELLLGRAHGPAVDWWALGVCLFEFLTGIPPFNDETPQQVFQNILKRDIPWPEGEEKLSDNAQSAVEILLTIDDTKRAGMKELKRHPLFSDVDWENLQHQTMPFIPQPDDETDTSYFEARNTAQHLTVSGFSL

For experiment [4], the target named is CAMK2G (Homo sapiens, UniProt Q13555).
Experiment [5] addresses PRKCA (Homo sapiens, UniProt P17252).
Experiment [6] deals with BRAF (Homo sapiens, UniProt P15056).
The target in experiment [7] is CIT (Homo sapiens, UniProt O14578).
Experiment [8] deals with T3, CHUK (Homo sapiens, UniProt O15111).
T3 sequence (O15111 1-745): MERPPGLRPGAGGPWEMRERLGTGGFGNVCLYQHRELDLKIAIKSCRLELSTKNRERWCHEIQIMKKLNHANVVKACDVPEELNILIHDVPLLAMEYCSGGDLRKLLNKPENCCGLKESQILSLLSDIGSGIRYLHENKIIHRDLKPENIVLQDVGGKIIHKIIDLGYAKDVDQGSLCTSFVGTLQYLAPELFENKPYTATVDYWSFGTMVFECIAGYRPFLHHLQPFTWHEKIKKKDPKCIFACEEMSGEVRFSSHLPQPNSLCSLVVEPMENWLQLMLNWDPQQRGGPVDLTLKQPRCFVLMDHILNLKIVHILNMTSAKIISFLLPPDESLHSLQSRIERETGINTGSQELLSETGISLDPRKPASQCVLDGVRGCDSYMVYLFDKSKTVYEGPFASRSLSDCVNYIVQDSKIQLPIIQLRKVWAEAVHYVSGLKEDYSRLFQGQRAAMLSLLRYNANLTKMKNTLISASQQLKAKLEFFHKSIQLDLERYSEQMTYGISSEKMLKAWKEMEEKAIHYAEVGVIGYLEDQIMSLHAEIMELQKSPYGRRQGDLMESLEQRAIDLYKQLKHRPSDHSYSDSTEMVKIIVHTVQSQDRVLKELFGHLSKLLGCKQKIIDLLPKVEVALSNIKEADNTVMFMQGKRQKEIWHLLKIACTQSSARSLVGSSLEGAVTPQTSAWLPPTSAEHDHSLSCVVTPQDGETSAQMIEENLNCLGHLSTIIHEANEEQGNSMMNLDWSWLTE

Experiment [9] addresses T4, TP53RK (Homo sapiens, UniProt Q96S44).
T4 sequence (Q96S44 1-253): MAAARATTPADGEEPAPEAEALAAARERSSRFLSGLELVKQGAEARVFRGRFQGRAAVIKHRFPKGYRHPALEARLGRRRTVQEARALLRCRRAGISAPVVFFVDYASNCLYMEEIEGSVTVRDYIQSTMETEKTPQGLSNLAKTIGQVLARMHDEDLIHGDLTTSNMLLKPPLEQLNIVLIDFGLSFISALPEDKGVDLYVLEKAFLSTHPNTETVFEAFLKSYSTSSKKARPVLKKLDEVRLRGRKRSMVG

Experiment [10] has as its target STK38 (Homo sapiens, UniProt Q15208).
Experiment [11] deals with PTK2B (Homo sapiens, UniProt Q14289).
Chain of PTK2B (Q14289 whole entry): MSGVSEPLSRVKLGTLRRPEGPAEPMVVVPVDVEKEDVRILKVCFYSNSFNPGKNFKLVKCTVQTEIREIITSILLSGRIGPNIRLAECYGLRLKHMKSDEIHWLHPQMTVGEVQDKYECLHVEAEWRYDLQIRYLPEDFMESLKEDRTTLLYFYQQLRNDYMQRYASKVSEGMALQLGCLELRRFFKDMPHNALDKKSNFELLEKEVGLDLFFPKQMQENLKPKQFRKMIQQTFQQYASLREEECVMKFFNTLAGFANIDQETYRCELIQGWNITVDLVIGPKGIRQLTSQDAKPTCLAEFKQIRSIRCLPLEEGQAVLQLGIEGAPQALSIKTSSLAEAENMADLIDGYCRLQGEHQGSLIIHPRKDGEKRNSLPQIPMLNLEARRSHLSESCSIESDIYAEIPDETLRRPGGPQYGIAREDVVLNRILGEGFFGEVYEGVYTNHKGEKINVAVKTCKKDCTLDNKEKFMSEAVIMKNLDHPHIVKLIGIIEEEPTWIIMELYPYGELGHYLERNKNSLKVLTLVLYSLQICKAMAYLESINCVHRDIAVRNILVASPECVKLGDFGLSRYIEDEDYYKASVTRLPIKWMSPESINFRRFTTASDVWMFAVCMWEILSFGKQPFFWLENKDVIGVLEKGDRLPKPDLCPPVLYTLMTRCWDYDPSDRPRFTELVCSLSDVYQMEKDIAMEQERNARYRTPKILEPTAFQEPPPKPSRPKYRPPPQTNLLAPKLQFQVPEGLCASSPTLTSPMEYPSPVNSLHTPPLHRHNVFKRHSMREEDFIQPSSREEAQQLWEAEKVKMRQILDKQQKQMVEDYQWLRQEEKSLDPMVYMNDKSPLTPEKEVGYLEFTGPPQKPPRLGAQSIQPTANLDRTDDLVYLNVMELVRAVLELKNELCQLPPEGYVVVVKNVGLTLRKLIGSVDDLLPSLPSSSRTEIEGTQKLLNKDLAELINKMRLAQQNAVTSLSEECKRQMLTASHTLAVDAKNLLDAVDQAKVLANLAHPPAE

Chain of CAMK2G (Q13555 whole entry): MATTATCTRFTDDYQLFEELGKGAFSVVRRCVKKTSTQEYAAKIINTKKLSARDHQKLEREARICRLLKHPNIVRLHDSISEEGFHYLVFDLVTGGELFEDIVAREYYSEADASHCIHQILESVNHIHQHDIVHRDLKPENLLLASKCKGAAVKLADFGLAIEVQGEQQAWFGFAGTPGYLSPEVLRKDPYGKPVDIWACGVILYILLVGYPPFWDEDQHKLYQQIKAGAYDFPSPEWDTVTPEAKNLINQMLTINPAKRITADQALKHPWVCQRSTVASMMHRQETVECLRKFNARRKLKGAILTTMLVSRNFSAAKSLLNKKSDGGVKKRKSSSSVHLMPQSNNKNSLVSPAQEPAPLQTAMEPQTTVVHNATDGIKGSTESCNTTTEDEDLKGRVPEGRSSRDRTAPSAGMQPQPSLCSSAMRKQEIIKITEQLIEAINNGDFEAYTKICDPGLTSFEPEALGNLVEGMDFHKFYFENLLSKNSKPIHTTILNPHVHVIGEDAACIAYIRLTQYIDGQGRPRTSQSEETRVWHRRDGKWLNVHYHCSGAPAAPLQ
Chain of STK38 (Q15208 whole entry): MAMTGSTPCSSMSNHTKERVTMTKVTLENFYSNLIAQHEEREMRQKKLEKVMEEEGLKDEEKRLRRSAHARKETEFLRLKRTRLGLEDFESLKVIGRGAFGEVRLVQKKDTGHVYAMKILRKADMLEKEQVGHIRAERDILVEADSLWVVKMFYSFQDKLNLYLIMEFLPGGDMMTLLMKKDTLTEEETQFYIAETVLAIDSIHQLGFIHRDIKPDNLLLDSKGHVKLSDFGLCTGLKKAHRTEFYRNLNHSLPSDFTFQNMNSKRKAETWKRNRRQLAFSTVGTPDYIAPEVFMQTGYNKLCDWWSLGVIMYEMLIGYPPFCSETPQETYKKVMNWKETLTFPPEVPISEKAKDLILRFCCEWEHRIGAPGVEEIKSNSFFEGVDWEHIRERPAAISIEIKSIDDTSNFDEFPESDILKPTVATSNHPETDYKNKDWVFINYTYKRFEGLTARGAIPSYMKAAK
Chain of MELK (Q14680 whole entry): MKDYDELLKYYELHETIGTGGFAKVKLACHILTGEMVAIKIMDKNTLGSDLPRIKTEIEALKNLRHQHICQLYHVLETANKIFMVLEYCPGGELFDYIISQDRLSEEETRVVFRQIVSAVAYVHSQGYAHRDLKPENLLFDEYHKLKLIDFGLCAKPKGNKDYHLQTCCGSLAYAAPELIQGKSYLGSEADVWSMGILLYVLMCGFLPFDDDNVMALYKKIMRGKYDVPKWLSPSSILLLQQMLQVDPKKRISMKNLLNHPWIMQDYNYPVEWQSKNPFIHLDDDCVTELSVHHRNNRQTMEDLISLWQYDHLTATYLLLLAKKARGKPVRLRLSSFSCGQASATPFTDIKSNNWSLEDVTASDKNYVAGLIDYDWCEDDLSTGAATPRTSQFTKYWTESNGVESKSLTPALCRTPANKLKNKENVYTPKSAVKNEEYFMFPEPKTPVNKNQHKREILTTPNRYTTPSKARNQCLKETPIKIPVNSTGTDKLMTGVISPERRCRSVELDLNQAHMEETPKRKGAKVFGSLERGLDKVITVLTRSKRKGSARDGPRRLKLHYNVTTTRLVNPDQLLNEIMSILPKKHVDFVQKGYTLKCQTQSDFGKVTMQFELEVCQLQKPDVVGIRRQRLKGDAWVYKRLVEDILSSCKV
Chain of BRAF (P15056 whole entry): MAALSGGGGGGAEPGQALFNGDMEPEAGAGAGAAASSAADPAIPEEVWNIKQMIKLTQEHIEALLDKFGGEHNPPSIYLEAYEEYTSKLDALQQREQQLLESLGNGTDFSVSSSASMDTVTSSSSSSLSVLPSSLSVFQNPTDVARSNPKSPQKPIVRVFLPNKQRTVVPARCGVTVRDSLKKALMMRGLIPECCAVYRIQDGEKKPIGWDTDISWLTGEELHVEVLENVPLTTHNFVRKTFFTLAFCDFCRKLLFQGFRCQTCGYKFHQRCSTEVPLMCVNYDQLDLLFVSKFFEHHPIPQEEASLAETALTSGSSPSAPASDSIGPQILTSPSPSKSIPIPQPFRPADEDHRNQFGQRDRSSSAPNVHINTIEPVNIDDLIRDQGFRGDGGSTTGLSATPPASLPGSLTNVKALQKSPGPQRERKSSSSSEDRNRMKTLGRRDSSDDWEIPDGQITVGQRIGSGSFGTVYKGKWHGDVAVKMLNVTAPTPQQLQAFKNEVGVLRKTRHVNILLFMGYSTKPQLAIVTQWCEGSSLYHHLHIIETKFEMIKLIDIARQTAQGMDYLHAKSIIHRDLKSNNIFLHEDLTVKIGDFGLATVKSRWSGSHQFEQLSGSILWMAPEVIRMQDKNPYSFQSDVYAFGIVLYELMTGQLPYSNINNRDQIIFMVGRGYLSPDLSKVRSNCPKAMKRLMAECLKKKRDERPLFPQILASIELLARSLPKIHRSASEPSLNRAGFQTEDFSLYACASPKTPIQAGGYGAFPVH

For the molecule `CN1CCN(c2ccc(Nc3ncc(C#N)c(Nc4ccccc4C(N)=O)n3)cc2)CC1.Cl` [TCMDC-134116], the half-maximal inhibitory concentration (IC50) (as a rule, the concentration needed to halve the response being measured) in [1] is > 20000 nM; in experiment [2] it was 360 nM and 350 nM; in [3], 280 nM and 610 nM; in experiment [4], 1500 nM and 1300 nM; in experiment [5], 740 nM; in experiment [6], 2000 nM. The concentration for half-maximal inhibition (IC50) in experiment [7] is 5700 nM and 5800 nM; in [8], > 20000 nM; in experiment [9], 4000 nM; in experiment [10], 350 nM and 290 nM; in experiment [11], 77 nM and 97 nM.

On to `Cl.NCC1(c2nc(-c3ccc(Cl)c(O)c3)c(-c3ccncc3)[nH]2)CCCCC1` [TCMDC-141154], for which the 50% inhibitory concentration (IC50) in experiment [1] is > 20000 nM; in [2] it was 4700 nM and 4500 nM; in experiment [3] it was > 20000 nM; in experiment [4] it was > 20000 nM; in experiment [5] it was > 20000 nM; in experiment [6], 1100 nM and 900 nM. Also, the IC50 in [7] was 160 nM and 280 nM; in experiment [8], > 20000 nM; in experiment [9] it was > 20000 nM; in [10], > 20000 nM; in experiment [11], > 20000 nM.

As for `CN(C)CC(O)COc1ccc(Nc2ncc([N+](=O)[O-])c(Nc3ccccc3O)n2)cc1.O=C(O)C(F)(F)F` (stereo not drawn) [TCMDC-141399], the IC50 in experiment [1], in experiment [2], in experiment [3], in [4], in [5] and in experiment [6] was > 20000 nM in each case. Further, the IC50 in experiment [7] was 4400 nM; in experiment [8], > 20000 nM; in [9], > 20000 nM; in experiment [10] it was > 20000 nM; in [11], 350 nM and 480 nM.
